Results published in paper PMC12040169 (PLOS Biology, 2025).

Assay: in vitro
Conditions: human, hela cells, % viability

| SMILES | viability at 28.5 h, 10 µM [%] |
| --- | --- |
| O=C(Nc1ncn(CC(=O)N2CCCCCC2)n1)c1cccc(F)c1 [CBK304904] | 87.5 |
| Cc1nc(-c2cccnc2)[nH]c(=O)c1CC(=O)N(C)C1CCCC1 [CBK304907] | 83 |
| Cc1cc(NC(=O)CCN2CCC(N3CCNC3=O)CC2)no1 [CBK304909] | 89.9 |
| N#CC1(NC(=O)CN2CCOC(Cn3cccn3)C2)CCCC1 (stereo not shown) [CBK304911] | 95.8 |
| O=C1CCC(C(=O)N2CC3(CCCC3)c3c(F)cccc32)CN1 (stereo not shown) [CBK304914] | 85.7 |
| Cc1cccc(OCC(=O)Nc2ncn(Cc3cccnc3)n2)c1 [CBK304919] | 95.9 |
| Cn1cc(CN2CCCN(C(=O)c3cc4ccccc4[nH]3)CC2)cn1 [CBK304920] | 96 |
| CCN(CC(C)C#N)C(=O)c1nn(-c2ccccc2)c(C)cc1=O (stereo not shown) [CBK304925] | 109 |
| CC(NS(=O)(=O)Cc1ccccc1Cl)C(=O)N1CCCCC1 (stereo not shown) [CBK304928] | 93.7 |
| Cc1nc(CN2CCCC(NCc3cccc(C(N)=O)c3)C2)no1 (stereo not shown) [CBK304929] | 94.2 |
| Cc1cnn(C2CCCN(C(=O)CC3C(=O)Nc4ccccc43)C2)c1 (stereo not shown) [CBK304930] | 81.7 |
| O=C(Cn1cnc2ccc(F)cc2c1=O)N1CCOC2CCCC21 (stereo not shown) [CBK304932] | 90.4 |
| CCNC(=O)C1(NC(=O)Cc2cn3cccc(C)c3n2)CCCCC1 [CBK304933] | 106 |
| CC(=O)N1CCCc2cc(NC(=O)NCCc3cnn(C)c3)ccc21 [CBK304937] | 88.7 |
| Cn1cc(C(=O)NC2CCN(c3ccc(C#N)cc3F)CC2)cn1 [CBK304939] | 83.7 |
| Cc1cnn(CC2CC2)c1NC(=O)Cc1csc(N2CCCC2=O)n1 [CBK304940] | 92.4 |
| CNC(=O)CN(CCO)Cc1cc(Br)ccc1F [CBK304941] | 108 |
| CCOc1ccnc(N2CCN(C(=O)CCc3ccsc3)CC2)n1 [CBK304942] | 99.4 |
| COc1ccc(C)cc1-n1ccc(C(=O)NC2(C#N)CCSC2)n1 (stereo not shown) [CBK304943] | 93.1 |
| Cc1cccn2c(=O)cc(CN3CCCC(N4CCNC4=O)C3)nc12 (stereo not shown) [CBK304947] | 88.4 |
| CC1CCC(C(N)=O)CN1C(=O)c1csc(COc2ccc(Cl)cc2)n1 (stereo not shown) [CBK304948] | 102 |
| COC(=O)c1cccn2cc(CN3CCOC4CCCCC43)nc12 (stereo not shown) [CBK304949] | 106 |
| Cc1ccc(C(=O)Nc2ncn(CC(=O)N3CCCCCC3)n2)s1 [CBK304951] | 98.2 |

| SMILES | viability at 28.5 h, 10 µM [%] |
| --- | --- |
| COc1ccccc1CC(=O)Nc1ncccc1OCCCC#N [CBK304952] | 91 |
| CCn1ncc2c(C(=O)NC(C)COC)cc(-c3cccs3)nc21 (stereo not shown) [CBK304955] | 87.1 |
| COC(=O)c1cccn2cc(CN3CCSC(C)C3)nc12 (stereo not shown) [CBK304958] | 97.4 |
| Cc1nc2c(c(C)c1CC(=O)NCc1cccc(C#N)c1)c(=O)[nH]n2C [CBK304959] | 92.4 |
| COc1cccc(CC(=O)Nc2ncccc2OCCCC#N)c1 [CBK304961] | 88 |
| Cc1nc(CN2CCCC(NCc3ccc(C(N)=O)cc3)C2)no1 (stereo not shown) [CBK304962] | 88.3 |
| COC(=O)C1CCCN1CC(=O)NCc1ccc(OCC(N)=O)cc1 (stereo not shown) [CBK304970] | 86.1 |
| CC1CC1C(=O)N(C)C1CCN(c2ncnc3ccccc23)CC1 (stereo not shown) [CBK304972] | 83.3 |
| CC1CCc2c(sc3nc(CN4CCCCC4C)[nH]c(=O)c23)C1 (stereo not shown) [CBK304975] | 89.3 |
| CCCn1c(O)cc(=O)nc1SCC(=O)N1CCCc2ccccc21 [CBK304977] | 79.1 |
| Cc1cc(C(=O)N2CCc3c(sc4ncnc(N)c34)C2)c(C)s1 [CBK304980] | 88.5 |
| COc1cccc(CC(=O)Nc2ncccc2C)c1 [CBK304982] | 98.9 |
| Cc1ccc(NC(=O)CCc2c(C)nc(N3CCOCC3)[nH]c2=O)cc1 [CBK304985] | 98.2 |
| Cc1nc(N2CCOCC2)[nH]c(=O)c1CCC(=O)Nc1ccc(F)cc1 [CBK304990] | 91.1 |
| CC1CCc2sc(C(=O)N3CCC4(CC3)NC(=O)NC4=O)cc2C1 (stereo not shown) [CBK304992] | 89.1 |
| Cc1nc2nc(N)nn2c(C)c1CCC(=O)NCc1cccc(Cl)c1 [CBK304993] | 87.5 |
| CCCn1ccnc1SCC(=O)Nc1ccc(N(C)C)cc1 [CBK304996] | 112 |
| COC(=O)c1ccc2c(=O)n(CC(C)O)c(SC3CCOC3=O)nc2c1 (stereo not shown) [CBK304997] | 84.7 |
| Cc1ccc(Cc2cnc(NC(=O)CN3CSCC3=O)s2)cc1Cl [CBK305001] | 82 |
| CC1CCc2c(C(=O)N(C)CC(=O)NC(C)(C)C)csc2C1 (stereo not shown) [CBK305002] | 97.5 |
| CCOC(=O)c1cnc(SC(C)C(=O)N2CCc3ccccc32)nc1N (stereo not shown) [CBK305007] | 86.9 |
| COc1ccc(S(=O)(=O)N2CCOCC2)cc1C(=O)N1CCCC(C)C1 (stereo not shown) [CBK305011] | 110 |
| CC1CCCN(C(=O)c2cc(S(=O)(=O)N3CCOCC3)ccc2Cl)C1 (stereo not shown) [CBK305012] | 99.5 |
